{"source": "paper PMC3150631", "about": "(Nature, 2011)", "target": "T1, UCP2 (mouse mitochondrial uncoupling protein 2) (Mus musculus, UniProt P70406)", "T1 sequence (P70406 14-309)": "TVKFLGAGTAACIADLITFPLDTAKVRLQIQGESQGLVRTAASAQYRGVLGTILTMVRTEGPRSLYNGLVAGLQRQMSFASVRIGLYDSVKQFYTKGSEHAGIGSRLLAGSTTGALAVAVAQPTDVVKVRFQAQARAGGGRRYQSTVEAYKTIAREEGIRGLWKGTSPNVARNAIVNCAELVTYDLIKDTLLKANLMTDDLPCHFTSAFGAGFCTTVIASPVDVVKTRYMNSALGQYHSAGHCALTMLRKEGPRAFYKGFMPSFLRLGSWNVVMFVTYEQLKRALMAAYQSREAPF", "assay": "proton translocation in liposomes", "format": "biochemical", "conditions": "fatty-acid activated; inhibitor", "data": [{"compound": "Nc1nc2c(ncn2[C@@H]2O[C@H](COP(=O)(O)OP(=O)(O)O)[C@@H](O)[C@H]2O)c(=O)[nH]1", "note": "[GDP]", "values": [{"measurement": "proton translocation in liposomes", "result": "it showed fatty-acid activated and GDP-inhibited proton translocation activity"}]}]}
